From article PMC4661090 (FEBS letters, 2015)

Experiments:
[1] = target: Tsr (thiostrepton resistance methyltransferase) (Streptomyces azureus, UniProt P18644); test: isothermal titration calorimetry, single-set-of-sites fit; assay type: binding
[2] = target: Tsr (thiostrepton resistance methyltransferase) (Streptomyces azureus, UniProt P18644, N129A); test: biochemical; assay type: binding
[3] = target: Tsr (thiostrepton resistance methyltransferase) (Streptomyces azureus, UniProt P18644, R135A); test: biochemical; assay type: binding
[4] = target: Tsr (thiostrepton resistance methyltransferase) (Streptomyces azureus, UniProt P18644, R165A); test: biochemical; assay type: binding
[5] = target: Tsr (thiostrepton resistance methyltransferase) (Streptomyces azureus, UniProt P18644, R165K); test: biochemical
[6] = target: Tsr (thiostrepton resistance methyltransferase) (Streptomyces azureus, UniProt P18644, N129D); test: biochemical
[7] = target: Tsr (thiostrepton resistance methyltransferase) (Streptomyces azureus, UniProt P18644, R135K); test: biochemical

For Nc1ncnc2c1ncn2[C@@H]1O[C@H](CSCC[C@H](N)C(=O)O)[C@@H](O)[C@H]1O [SAH, S-adenosyl-L-homocysteine], the Kd [1] was 24.4 µM, the Kd [2] was 16.4 µM and the Kd [3] was 11 µM. It also gave a Kd [4] of 20.5 µM.

C[S+](CC[C@H](N)C(=O)O)C[C@H]1O[C@@H](n2cnc3c(N)ncnc32)[C@H](O)[C@@H]1O (stereo partly drawn) [SAM, S-adenosyl-L-methionine] gave a Kd [1] of 107 µM, a Kd [2] of 493 µM and a Kd [3] of 614 µM. The Kd [4] was 189 µM, the Kd [5] was 97.1 µM and the Kd [6] was 411 µM. For the same molecule, the Kd [7] was 142 µM.
